Measured values published in PubChem BioAssay AID2060487 (Molecular Pharmacology Branch, DTP, NCI, 2025).

Test system: 997537-175-T-J1-PDC complex spheroid viability
Assay: Anticancer human tumor 997537-175-T-J1-PDC patient-derived colon adenocarcinoma cell line growth inhibition [GQUAD]
Conditions: for IC50: curve of first compound; for viability, T/C: stronger effect = lower value
How it was run: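 Multi-cell-type spheroids of tumor cells with HUVEC and mesenchymal stem cells, treated with drug combinations. Concentrations descend in half-log steps from near clinical Cmax, or from 10 microM where Cmax is unknown; viability read-out.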

[1] = second compound 0.0316 µM, first compound 0.0316 µM
[2] = second compound 0.0316 µM, first compound 0.1 µM
[3] = second compound 0.0316 µM, first compound 0.316 µM
[4] = second compound 0.0316 µM, first compound 1 µM
[5] = second compound 0.0316 µM, first compound 3.16 µM
[6] = second compound 0.0316 µM, first compound 10 µM
[7] = second compound 0.1 µM, first compound 0.0316 µM
[8] = second compound 0.1 µM, first compound 0.1 µM
[9] = second compound 0.1 µM, first compound 0.316 µM
[10] = second compound 0.1 µM, first compound 1 µM
[11] = second compound 0.1 µM, first compound 3.16 µM
[12] = second compound 0.1 µM, first compound 10 µM
[13] = second compound 0.316 µM, first compound 0.0316 µM
[14] = second compound 0.316 µM, first compound 0.1 µM
[15] = second compound 0.316 µM, first compound 0.316 µM
[16] = second compound 0.316 µM, first compound 1 µM
[17] = second compound 0.316 µM, first compound 3.16 µM
[18] = second compound 0.316 µM, first compound 10 µM
[19] = second compound 1 µM, first compound 0.0316 µM
[20] = second compound 1 µM, first compound 0.1 µM
[21] = second compound 1 µM, first compound 0.316 µM
[22] = second compound 1 µM, first compound 1 µM
[23] = second compound 1 µM, first compound 3.16 µM
[24] = second compound 1 µM, first compound 10 µM
[25] = second compound 3.16 µM, first compound 0.0316 µM
[26] = second compound 3.16 µM, first compound 0.1 µM
[27] = second compound 3.16 µM, first compound 0.316 µM
[28] = second compound 3.16 µM, first compound 1 µM
[29] = second compound 3.16 µM, first compound 3.16 µM
[30] = second compound 3.16 µM, first compound 10 µM
[31] = second compound 10 µM, first compound 0.0316 µM
[32] = second compound 10 µM, first compound 0.1 µM
[33] = second compound 10 µM, first compound 0.316 µM
[34] = second compound 10 µM, first compound 1 µM
[35] = second compound 10 µM, first compound 3.16 µM
[36] = second compound 10 µM, first compound 10 µM
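Further: spheroids exposed to the agents for 7 days.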
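Wherever viability, T/C is given: 100% = DMSO vehicle control viability.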

Compound: CC1COCCN1c1cc(-c2ccnn2C)c2ccnc(-c3ccn[nH]3)c2n1 (centres undefined) + CN(C)c1ccc(Nc2c3ccc(NC(=O)CCN4CCCC4)cc3nc3cc(NC(=O)CCN4CCCC4)ccc23)cc1
- IC50 (second compound 0.0316 µM): 800 nM
- IC50 (second compound 0.1 µM): 2460 nM
- IC50 (second compound 0.316 µM): > 10000 nM
- IC50 (second compound 1 µM): > 10000 nM
- IC50 (second compound 3.16 µM): > 10000 nM
- IC50 (second compound 10 µM): 264 nM
- viability, T/C [1]: 86.6%
- viability, T/C [2]: 78.5%
- viability, T/C [3]: 58.1%
- viability, T/C [4]: 43.9%
- viability, T/C [5]: 46.8%
- viability, T/C [6]: 30.1%
- viability, T/C [7]: 95.8%
- viability, T/C [8]: 81.9%
- viability, T/C [9]: 69.5%
- viability, T/C [10]: 56.6%
- viability, T/C [11]: 40.1%
- viability, T/C [12]: 52.9%
- viability, T/C [13]: 97.7%
- viability, T/C [14]: 69.4%
- viability, T/C [15]: 61.6%
- viability, T/C [16]: 35.5%
- viability, T/C [17]: 54.9%
- viability, T/C [18]: 59.8%
- viability, T/C [19]: 82.5%
- viability, T/C [20]: 59.7%
- viability, T/C [21]: 56.1%
- viability, T/C [22]: 34%
- viability, T/C [23]: 68.8%
- viability, T/C [24]: 51%
- viability, T/C [25]: 60.6%
- viability, T/C [26]: 70.3%
- viability, T/C [27]: 52.3%
- viability, T/C [28]: 44.1%
- viability, T/C [29]: 67.8%
- viability, T/C [30]: 60.6%
- viability, T/C [31]: 89.6%
- viability, T/C [32]: 68.8%
- viability, T/C [33]: 43.8%
- viability, T/C [34]: 32.6%
- viability, T/C [35]: 50%
- viability, T/C [36]: 59.5%

Compound: C=CCn1c(=O)c2cnc(Nc3ccc(N4CCN(C)CC4)cc3)nc2n1-c1cccc(C(C)(C)O)n1 + CN(C)c1ccc(Nc2c3ccc(NC(=O)CCN4CCCC4)cc3nc3cc(NC(=O)CCN4CCCC4)ccc23)cc1
- IC50 (second compound 0.0316 µM): 2100 nM
- IC50 (second compound 0.1 µM): 2160 nM
- IC50 (second compound 0.316 µM): 6680 nM
- IC50 (second compound 1 µM): 2860 nM
- IC50 (second compound 3.16 µM): 2420 nM
- IC50 (second compound 10 µM): 5060 nM
- viability, T/C [1]: 104%
- viability, T/C [2]: 93%
- viability, T/C [3]: 91.8%
- viability, T/C [4]: 74.4%
- viability, T/C [5]: 35.5%
- viability, T/C [6]: 31.7%
- viability, T/C [7]: 95.8%
- viability, T/C [8]: 85.2%
- viability, T/C [9]: 89.1%
- viability, T/C [10]: 67.5%
- viability, T/C [11]: 41.2%
- viability, T/C [12]: 25.6%
- viability, T/C [13]: 101%
- viability, T/C [14]: 73.8%
- viability, T/C [15]: 86.5%
- viability, T/C [16]: 71.9%
- viability, T/C [17]: 84.2%
- viability, T/C [18]: 31.8%
- viability, T/C [19]: 83.1%
- viability, T/C [20]: 72%
- viability, T/C [21]: 82.1%
- viability, T/C [22]: 75.8%
- viability, T/C [23]: 47.5%
- viability, T/C [24]: 26.4%
- viability, T/C [25]: 74.3%
- viability, T/C [26]: 85.9%
- viability, T/C [27]: 88%
- viability, T/C [28]: 68.5%
- viability, T/C [29]: 45.1%
- viability, T/C [30]: 33.3%
- viability, T/C [31]: 66.1%
- viability, T/C [32]: 92.8%
- viability, T/C [33]: 111%
- viability, T/C [34]: 74.2%
- viability, T/C [35]: 58.5%
- viability, T/C [36]: 39.9%
